In patent US20020026053A1, “Novel 3-(substituted) -2- indolinones compounds and use thereof as inhibitors of protein kinase activity” (priority 1997, published 2002):

Target: T1, Met receptor (EGFR/Met chimeric cells, EMR) (Homo sapiens, UniProt P08581)
T1 construct: expressed in transfected cells; the other entry of the earlier key: EGFR (P00533, Epidermal growth factor receptor)
Assay: Met Autophosphorylation Assay
Assay type: biochemical
Conditions: protocol P.130
Method in brief: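 Met phosphorylation was measured by capture ELISA. Lysates (90 μg/100 μl, HNTG plus 1 mM PMSF) from transiently transfected EGFR/Met chimera (EMR) cells were bound for 60 min at room temperature to wells holding rabbit anti-Met (C-28) on goat anti-rabbit coat. Phosphotyrosine was the read-out.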

T1 sequence (P08581 with tags, fused parts or gaps): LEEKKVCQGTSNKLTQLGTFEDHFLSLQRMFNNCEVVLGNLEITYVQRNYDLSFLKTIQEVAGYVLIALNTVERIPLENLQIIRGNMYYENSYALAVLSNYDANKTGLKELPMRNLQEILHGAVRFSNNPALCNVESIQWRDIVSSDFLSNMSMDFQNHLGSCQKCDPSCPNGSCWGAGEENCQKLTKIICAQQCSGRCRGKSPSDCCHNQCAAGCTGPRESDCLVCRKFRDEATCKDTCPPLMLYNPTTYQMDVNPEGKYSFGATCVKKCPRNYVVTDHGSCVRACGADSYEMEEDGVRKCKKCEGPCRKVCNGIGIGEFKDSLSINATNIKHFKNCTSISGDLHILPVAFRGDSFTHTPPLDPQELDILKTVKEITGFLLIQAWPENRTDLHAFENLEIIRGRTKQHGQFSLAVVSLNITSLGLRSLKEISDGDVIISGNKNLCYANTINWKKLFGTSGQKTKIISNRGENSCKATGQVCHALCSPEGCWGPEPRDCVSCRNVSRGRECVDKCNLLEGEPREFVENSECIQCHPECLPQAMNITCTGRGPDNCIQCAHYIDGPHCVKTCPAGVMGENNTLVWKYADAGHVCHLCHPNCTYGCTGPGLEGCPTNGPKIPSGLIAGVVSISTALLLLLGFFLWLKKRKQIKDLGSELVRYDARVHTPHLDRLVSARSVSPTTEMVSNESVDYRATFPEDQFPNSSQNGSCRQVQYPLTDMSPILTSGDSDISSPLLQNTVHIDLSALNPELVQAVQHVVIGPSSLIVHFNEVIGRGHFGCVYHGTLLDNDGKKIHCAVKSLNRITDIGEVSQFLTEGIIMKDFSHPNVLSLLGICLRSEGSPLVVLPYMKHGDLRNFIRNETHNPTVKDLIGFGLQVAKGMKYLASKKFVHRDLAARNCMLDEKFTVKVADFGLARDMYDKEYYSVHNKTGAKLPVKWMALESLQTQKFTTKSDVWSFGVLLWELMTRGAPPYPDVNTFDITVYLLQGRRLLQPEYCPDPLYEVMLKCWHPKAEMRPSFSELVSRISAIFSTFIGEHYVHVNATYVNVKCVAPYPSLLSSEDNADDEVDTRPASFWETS

Going from `COC1CCCN1C=C1C(=O)Nc2c(Br)cc(Br)cc21` (racemic) [10740/A04] to `COC1CCCN1C=C1C(=O)Nc2c(Br)cc(Br)c(C)c21` (stereo not shown) [10740/H04], the “Met Kinase % Inhibition (P.130)” value falls from 48.2% to 30.9%.

First: COC1CCCN1C=C1C(=O)Nc2ccc(I)cc21 (racemic) [10740/B04]
Second: COC1CCCN1C=C1C(=O)Nc2ccc(CCCl)cc21 (stereo not shown) [10740/G04]
The “Met Kinase % Inhibition (P.130)” value of the first is higher: 76.7% for the first, 9.1% for the second.

Going from `Cc1c(Br)cc(Br)c2c1C(=Cc1ccc(CO)o1)C(=O)N2` [10739/H11] to `Cc1c(Br)cc(Br)c2c1C(=Cc1ccsc1)C(=O)N2` [10740/H05], the “Met Kinase % Inhibition (P.130)” value falls from 75.8% to 25.6%.

First: O=C1Nc2c(Br)cc(Br)cc2C1=Cc1cnc2ccccc2c1 [10740/A02]
Second: Cc1c(Br)cc(Br)c2c1C(=Cc1cnc3ccccc3c1)C(=O)N2 [10740/H02]
The “Met Kinase % Inhibition (P.130)” value of the first is higher: 56.3% for the first, 28.7% for the second.

Going from `O=C1Nc2c(Br)cc(Br)cc2C1=Cc1ccnc2ccccc12` [10740/A03] to `Cc1c(Br)cc(Br)c2c1C(=Cc1ccnc3ccccc13)C(=O)N2` [10740/H03], the “Met Kinase % Inhibition (P.130)” value falls from 77.8% to 17.5%.

First: O=C1Nc2c(Br)cc(Br)cc2C1=Cc1ccsc1 [10740/A05]
Second: O=C1Nc2c(Br)cc(Br)cc2C1=Cc1cc(Br)cs1 [10740/A10]
The “Met Kinase % Inhibition (P.130)” value of the first is higher: 79.5% for the first, 45.1% for the second.

Compared with `O=C1Nc2c(Br)cc(Br)cc2C1=Cc1ccc2ccccc2n1` [10740/A06], `Cc1c(Br)cc(Br)c2c1C(=Cc1ccc3ccccc3n1)C(=O)N2` [10740/H06] is lower in “Met Kinase % Inhibition (P.130)” value: 48.5% for the first, 33.4% for the second.

Compared with `Cn1cc(C=C2C(=O)Nc3c(Br)cc(Br)cc32)c2ccccc21` [10740/A07], `Cc1c(Br)cc(Br)c2c1C(=Cc1cn(C)c3ccccc13)C(=O)N2` [10740/H07] is lower in “Met Kinase % Inhibition (P.130)” value: 54.9% for the first, 1.5% for the second.

Going from `Cc1[nH]c2ccccc2c1C=C1C(=O)Nc2c(Br)cc(Br)cc21` [10740/A08] to `Cc1[nH]c2ccccc2c1C=C1C(=O)Nc2c(Br)cc(Br)c(C)c21` [10740/H08], the “Met Kinase % Inhibition (P.130)” value falls from 43.2% to 28.1%.

First: CCCCOc1ccc(C=C2C(=O)Nc3c(Br)cc(Br)cc32)cc1 [10740/A11]
Second: CCCCOc1ccc(C=C2C(=O)Nc3c(Br)cc(Br)c(C)c32)cc1 [10740/H11]
The “Met Kinase % Inhibition (P.130)” value of the first is higher: 30.3% for the first, 17.2% for the second.

Going from `O=C1Nc2ccc(I)cc2C1=Cc1cnc2ccccc2c1` [10740/B02] to `O=C1Nc2ccc(CCCl)cc2C1=Cc1cnc2ccccc2c1` [10740/G02], the “Met Kinase % Inhibition (P.130)” value falls from 79.2% to 55.2%.

First: O=C1Nc2ccc(I)cc2C1=Cc1ccnc2ccccc12 [10740/B03]
Second: O=C1Nc2ccc(CCCl)cc2C1=Cc1ccnc2ccccc12 [10740/G03]
The “Met Kinase % Inhibition (P.130)” value of the first is higher: 84.8% for the first, 34.8% for the second.

First: O=C1Nc2ccc(I)cc2C1=Cc1ccsc1 [10740/B05]
Second: O=C1Nc2ccc(CCCl)cc2C1=Cc1ccsc1 [10740/G05]
The “Met Kinase % Inhibition (P.130)” value of the first is higher: 82.3% for the first, 30.3% for the second.

First: O=C1Nc2ccc(I)cc2C1=Cc1ccc2ccccc2n1 [10740/B06]
Second: O=C1Nc2ccc(CCCl)cc2C1=Cc1ccc2ccccc2n1 [10740/G06]
The “Met Kinase % Inhibition (P.130)” value of the first is higher: 68.9% for the first, 25.0% for the second.

Going from `Cn1cc(C=C2C(=O)Nc3ccc(I)cc32)c2ccccc21` [10740/B07] to `Cn1cc(C=C2C(=O)Nc3ccc(CCCl)cc32)c2ccccc21` [10740/G07], the “Met Kinase % Inhibition (P.130)” value falls from 73.7% to 10.8%.

First: Cc1[nH]c2ccccc2c1C=C1C(=O)Nc2ccc(I)cc21 [10740/B08]
Second: Cc1[nH]c2ccccc2c1C=C1C(=O)Nc2ccc(CCCl)cc21 [10740/G08]
The “Met Kinase % Inhibition (P.130)” value of the first is higher: 65.0% for the first, 33.4% for the second.

Compared with `O=C1Nc2ccc(I)cc2C1=Cc1cc(Br)cs1` [10740/B10], `O=C1Nc2ccc(CCCl)cc2C1=Cc1cc(Br)cs1` [10740/G10] is lower in “Met Kinase % Inhibition (P.130)” value: 58.0% for the first, 19.4% for the second.

Compared with `CCCCOc1ccc(C=C2C(=O)Nc3ccc(I)cc32)cc1` [10740/B11], `CCCCOc1ccc(C=C2C(=O)Nc3ccc(CCCl)cc32)cc1` [10740/G11] is lower in “Met Kinase % Inhibition (P.130)” value: 68.6% for the first, 13.3% for the second.

Going from `Cc1c(Br)ccc2c1C(=Cc1cnc3ccccc3c1)C(=O)N2` [10740/C02] to `Cc1c(Br)ccc2c1C(=Cc1ccc3ccccc3n1)C(=O)N2` [10740/C06], the “Met Kinase % Inhibition (P.130)” value rises from 45.1% to 49.3%.

First: Cc1c(Br)ccc2c1C(=Cc1ccnc3ccccc13)C(=O)N2 [10740/C03]
Second: Cc1c(Br)ccc2c1C(=Cc1cn(C)c3ccccc13)C(=O)N2 [10740/C07]
The “Met Kinase % Inhibition (P.130)” value of the first is higher: 63.6% for the first, 44.3% for the second.

First: COC1CCCN1C=C1C(=O)Nc2ccc(Br)c(C)c21 (stereo not shown) [10740/C04]
Second: CNS(=O)(=O)c1ccc2c(c1)C(=CN1CCCC1OC)C(=O)N2 (stereo not shown) [10740/D04]
The “Met Kinase % Inhibition (P.130)” value of the first is lower: −4.9% for the first, 19.4% for the second.

First: Cc1c(Br)ccc2c1C(=Cc1ccsc1)C(=O)N2 [10740/C05]
Second: Cc1c(Br)ccc2c1C(=Cc1cc(Br)cs1)C(=O)N2 [10740/C10]
The “Met Kinase % Inhibition (P.130)” value of the first is higher: 66.1% for the first, −1.8% for the second.

Compared with `Cc1[nH]c2ccccc2c1C=C1C(=O)Nc2ccc(Br)c(C)c21` [10740/C08], `CNS(=O)(=O)c1ccc2c(c1)C(=Cc1c(C)[nH]c3ccccc13)C(=O)N2` [10740/D08] is higher in “Met Kinase % Inhibition (P.130)” value: 28.7% for the first, 30.3% for the second.

Compared with `CCCCOc1ccc(C=C2C(=O)Nc3ccc(Br)c(C)c32)cc1` [10740/C11], `CCCCOc1ccc(C=C2C(=O)Nc3ccc(S(=O)(=O)NC)cc32)cc1` [10740/D11] is higher in “Met Kinase % Inhibition (P.130)” value: −10.8% for the first, −9.1% for the second.

Going from `CNS(=O)(=O)c1ccc2c(c1)C(=Cc1cnc3ccccc3c1)C(=O)N2` [10740/D02] to `CNS(=O)(=O)c1ccc2c(c1)C(=Cc1ccc3ccccc3n1)C(=O)N2` [10740/D06], the “Met Kinase % Inhibition (P.130)” value falls from 49.9% to 41.8%.

Compared with `CNS(=O)(=O)c1ccc2c(c1)C(=Cc1ccnc3ccccc13)C(=O)N2` [10740/D03], `CNS(=O)(=O)c1ccc2c(c1)C(=Cc1cn(C)c3ccccc13)C(=O)N2` [10740/D07] is lower in “Met Kinase % Inhibition (P.130)” value: 64.4% for the first, 27.3% for the second.

Going from `CNS(=O)(=O)c1ccc2c(c1)C(=Cc1ccsc1)C(=O)N2` [10740/D05] to `CNS(=O)(=O)c1ccc2c(c1)C(=Cc1cc(Br)cs1)C(=O)N2` [10740/D10], the “Met Kinase % Inhibition (P.130)” value falls from 39.3% to 16.1%.

First: O=C1Nc2ccc(S(=O)(=O)Nc3ccc(C(F)(F)F)cc3)cc2C1=Cc1cnc2ccccc2c1 [10740/E02]
Second: O=C1Nc2ccc(S(=O)(=O)Nc3ccc(C(F)(F)F)cc3)cc2C1=Cc1ccc2ccccc2n1 [10740/E06]
The “Met Kinase % Inhibition (P.130)” value of the first is higher: 48.2% for the first, 16.6% for the second.

Going from `O=C1Nc2ccc(S(=O)(=O)Nc3ccc(C(F)(F)F)cc3)cc2C1=Cc1ccnc2ccccc12` [10740/E03] to `Cn1cc(C=C2C(=O)Nc3ccc(S(=O)(=O)Nc4ccc(C(F)(F)F)cc4)cc32)c2ccccc21` [10740/E07], the “Met Kinase % Inhibition (P.130)” value falls from 66.4% to 19.7%.

Going from `COC1CCCN1C=C1C(=O)Nc2ccc(S(=O)(=O)Nc3ccc(C(F)(F)F)cc3)cc21` (stereo not shown) [10740/E04] to `O=C1Nc2ccc(S(=O)(=O)Nc3ccc(C(F)(F)F)cc3)cc2C1=Cc1ccsc1` [10740/E05], the “Met Kinase % Inhibition (P.130)” value rises from 41.8% to 75.6%.

Compared with `Cc1[nH]c2ccccc2c1C=C1C(=O)Nc2ccc(S(=O)(=O)Nc3ccc(C(F)(F)F)cc3)cc21` [10740/E08], `O=C1Nc2ccc(S(=O)(=O)Nc3ccc(C(F)(F)F)cc3)cc2C1=Cc1cc(Br)cs1` [10740/E10] is higher in “Met Kinase % Inhibition (P.130)” value: 39.0% for the first, 61.9% for the second.

Going from `CCCCOc1ccc(C=C2C(=O)Nc3ccc(S(=O)(=O)Nc4ccc(C(F)(F)F)cc4)cc32)cc1` [10740/E11] to `CCCCOc1ccc(C=C2C(=O)Nc3ccc(S(=O)(=O)N4CCOCC4)cc32)cc1` [10740/F11], the “Met Kinase % Inhibition (P.130)” value rises from −16.9% to 42.9%.

Going from `O=C1Nc2ccc(S(=O)(=O)N3CCOCC3)cc2C1=Cc1cnc2ccccc2c1` [10740/F02] to `O=C1Nc2ccc(S(=O)(=O)N3CCOCC3)cc2C1=Cc1ccc2ccccc2n1` [10740/F06], the “Met Kinase % Inhibition (P.130)” value falls from 59.4% to 25.3%.

First: O=C1Nc2ccc(S(=O)(=O)N3CCOCC3)cc2C1=Cc1ccnc2ccccc12 [10740/F03]
Second: Cn1cc(C=C2C(=O)Nc3ccc(S(=O)(=O)N4CCOCC4)cc32)c2ccccc21 [10740/F07]
The “Met Kinase % Inhibition (P.130)” value of the first is higher: 32.8% for the first, 28.4% for the second.

First: COC1CCCN1C=C1C(=O)Nc2ccc(S(=O)(=O)N3CCOCC3)cc21 (stereo not shown) [10740/F04]
Second: O=C1Nc2ccc(S(=O)(=O)N3CCOCC3)cc2C1=Cc1ccsc1 [10740/F05]
The “Met Kinase % Inhibition (P.130)” value of the first is lower: −5.2% for the first, 52.1% for the second.

Going from `Cc1[nH]c2ccccc2c1C=C1C(=O)Nc2ccc(S(=O)(=O)N3CCOCC3)cc21` [10740/F08] to `O=C1Nc2ccc(S(=O)(=O)N3CCOCC3)cc2C1=Cc1cc(Br)cs1` [10740/F10], the “Met Kinase % Inhibition (P.130)” value rises from 35.9% to 58.3%.

In the case of `Cc1c(Br)cc(Br)c2c1C(=Cc1cc(Br)cs1)C(=O)N2` [10740/H10], the “Met Kinase % Inhibition (P.130)” value was 43.7%.
